{"source": "ChEMBL document CHEMBL4507283", "about": "“Data for DCP probe BI-1935” (2021)", "key": {"[1]": {"target": "Sodium-dependent serotonin transporter (Homo sapiens) (UniProt P31645)", "assay": "5HTTRANS/HU Eurofins-Panlabs selectivity data (BI)", "settings": "Compound concentration 10.0 uM"}, "[2]": {"target": "Acetylcholinesterase (Homo sapiens) (UniProt P22303)", "assay": "ACHOLINEST Eurofins-Panlabs selectivity data (BI)", "settings": "Compound concentration 10.0 uM"}, "[3]": {"target": "Angiotensin-converting enzyme (Oryctolagus cuniculus) (UniProt P12822)", "assay": "ANGIOCONVENZ Eurofins-Panlabs selectivity data (BI)", "settings": "Compound concentration 10.0 uM"}, "[4]": {"target": "Sodium/potassium-transporting ATPase subunit alpha-1 (Sus scrofa) (UniProt P05024)", "assay": "ATP NA+/K+PI Eurofins-Panlabs selectivity data (BI)", "settings": "Compound concentration 10.0 uM"}, "[5]": {"target": "Beta-2 adrenergic receptor (Rattus norvegicus) (UniProt P10608)", "sequence (P10608 whole entry, looked up)": "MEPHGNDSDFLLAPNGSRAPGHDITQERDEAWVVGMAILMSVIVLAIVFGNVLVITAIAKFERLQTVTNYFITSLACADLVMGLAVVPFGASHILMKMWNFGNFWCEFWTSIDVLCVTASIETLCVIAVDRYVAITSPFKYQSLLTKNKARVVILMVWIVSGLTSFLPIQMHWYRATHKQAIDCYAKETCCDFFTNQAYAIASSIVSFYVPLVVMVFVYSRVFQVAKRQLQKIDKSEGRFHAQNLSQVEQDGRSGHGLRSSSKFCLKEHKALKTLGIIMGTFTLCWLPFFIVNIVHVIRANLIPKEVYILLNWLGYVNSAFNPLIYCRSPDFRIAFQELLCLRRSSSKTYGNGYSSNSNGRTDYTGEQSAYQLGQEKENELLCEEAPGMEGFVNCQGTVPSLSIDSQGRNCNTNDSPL", "assay": "BETA/R Eurofins-Panlabs selectivity data (BI)", "settings": "Compound concentration 10.0 uM"}, "[6]": {"target": "Glutamate receptor ionotropic, NMDA 1 (Rattus norvegicus) (UniProt P35439)", "assay": "GLUTAMAT/R Eurofins-Panlabs selectivity data (BI)", "settings": "Compound concentration 10.0 uM"}, "[7]": {"target": "Small conductance calcium-activated potassium channel protein 1 (Rattus norvegicus) (UniProt P70606)", "assay": "K+/SKCA Eurofins-Panlabs selectivity data (BI)", "settings": "Compound concentration 10.0 uM"}, "[8]": {"target": "Urotensin-2 receptor (Homo sapiens) (UniProt Q9UKP6)", "assay": "UROTENSIN_II Eurofins-Panlabs selectivity data (BI)", "settings": "Compound concentration 10.0 uM"}, "[9]": {"system": "Tyrosine-protein kinase ABL1 (Homo sapiens), P00519 [F317I]", "settings": "Compound concentration 1000.0 nM"}, "[10]": {"target": "Atypical kinase COQ8A, mitochondrial (Homo sapiens) (UniProt Q8NI60)", "sequence (Q8NI60 163-647 limits assumed)": "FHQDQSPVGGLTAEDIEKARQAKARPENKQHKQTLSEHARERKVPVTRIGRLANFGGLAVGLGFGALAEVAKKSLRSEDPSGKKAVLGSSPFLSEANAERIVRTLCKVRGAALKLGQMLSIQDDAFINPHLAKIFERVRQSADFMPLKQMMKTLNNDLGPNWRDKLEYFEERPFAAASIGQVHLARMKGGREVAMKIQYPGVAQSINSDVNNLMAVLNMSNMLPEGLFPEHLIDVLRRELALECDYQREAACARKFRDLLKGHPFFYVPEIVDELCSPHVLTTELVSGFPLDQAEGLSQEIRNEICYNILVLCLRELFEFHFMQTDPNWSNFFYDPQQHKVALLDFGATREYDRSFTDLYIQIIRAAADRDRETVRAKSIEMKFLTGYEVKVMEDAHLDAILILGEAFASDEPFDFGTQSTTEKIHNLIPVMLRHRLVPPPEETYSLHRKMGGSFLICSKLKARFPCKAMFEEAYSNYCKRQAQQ", "settings": "Compound concentration 1000.0 nM"}, "[11]": {"target": "RAC-gamma serine/threonine-protein kinase (Homo sapiens) (UniProt Q9Y243)", "settings": "Compound concentration 1000.0 nM"}, "[12]": {"target": "Mitogen-activated protein kinase kinase kinase 5 (Homo sapiens) (UniProt Q99683)", "settings": "Compound concentration 1000.0 nM"}, "[13]": {"target": "Aurora kinase C (Homo sapiens) (UniProt Q9UQB9)", "settings": "Compound concentration 1000.0 nM"}, "[14]": {"target": "Serine/threonine-protein kinase B-raf (Homo sapiens) (UniProt P15056)", "settings": "Compound concentration 1000.0 nM"}, "[15]": {"target": "Serine/threonine-protein kinase BRSK2 (Homo sapiens) (UniProt Q8IWQ3)", "settings": "Compound concentration 1000.0 nM"}, "[16]": {"target": "Cyclin-dependent kinase 7 (Homo sapiens) (UniProt P50613)", "settings": "Compound concentration 1000.0 nM"}, "[17]": {"target": "Cyclin-dependent kinase-like 2 (Homo sapiens) (UniProt Q92772)", "settings": "Compound concentration 1000.0 nM"}, "[18]": {"target": "Casein kinase I isoform delta (Homo sapiens) (UniProt P48730)", "sequence (P48730 whole entry, looked up, canonical isoform)": "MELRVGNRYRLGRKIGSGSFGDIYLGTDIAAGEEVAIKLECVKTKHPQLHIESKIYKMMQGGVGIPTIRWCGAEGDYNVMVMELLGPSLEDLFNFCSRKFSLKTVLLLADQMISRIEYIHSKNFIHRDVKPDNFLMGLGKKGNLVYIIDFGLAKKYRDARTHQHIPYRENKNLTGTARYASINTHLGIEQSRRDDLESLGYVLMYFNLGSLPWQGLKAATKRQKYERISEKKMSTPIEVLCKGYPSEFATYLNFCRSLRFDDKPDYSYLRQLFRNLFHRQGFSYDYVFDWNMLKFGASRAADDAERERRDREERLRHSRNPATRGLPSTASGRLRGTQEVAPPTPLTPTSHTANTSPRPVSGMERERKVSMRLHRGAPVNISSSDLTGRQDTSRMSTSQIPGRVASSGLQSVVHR", "settings": "Compound concentration 1000.0 nM"}, "[19]": {"target": "Death-associated protein kinase 1 (Homo sapiens) (UniProt P53355)", "settings": "Compound concentration 1000.0 nM"}, "[20]": {"target": "Serine/threonine-protein kinase DCLK2 (Homo sapiens) (UniProt Q8N568)", "settings": "Compound concentration 1000.0 nM"}, "[21]": {"target": "Ephrin type-A receptor 3 (Homo sapiens) (UniProt P29320)", "settings": "Compound concentration 1000.0 nM"}, "[22]": {"system": "Receptor-type tyrosine-protein kinase FLT3 (Homo sapiens), P36888 [D835Y]", "settings": "Compound concentration 1000.0 nM"}, "[23]": {"target": "Mast/stem cell growth factor receptor Kit (Homo sapiens) (UniProt P10721)", "settings": "Compound concentration 1000.0 nM"}, "[24]": {"target": "Mitogen-activated protein kinase kinase kinase kinase 2 (Homo sapiens) (UniProt Q12851)", "settings": "Compound concentration 1000.0 nM"}, "[25]": {"target": "Dual specificity mitogen-activated protein kinase kinase 6 (Homo sapiens) (UniProt P52564)", "sequence (P52564 whole entry)": "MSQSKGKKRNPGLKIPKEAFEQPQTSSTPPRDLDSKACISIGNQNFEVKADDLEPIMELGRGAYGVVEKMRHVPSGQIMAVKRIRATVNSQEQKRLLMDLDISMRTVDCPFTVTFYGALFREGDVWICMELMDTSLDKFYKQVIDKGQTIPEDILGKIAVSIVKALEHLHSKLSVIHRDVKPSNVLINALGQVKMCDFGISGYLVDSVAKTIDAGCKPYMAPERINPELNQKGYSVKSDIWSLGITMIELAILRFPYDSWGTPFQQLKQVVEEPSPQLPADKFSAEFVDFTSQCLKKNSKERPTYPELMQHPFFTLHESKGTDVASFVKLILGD", "settings": "Compound concentration 1000.0 nM"}, "[26]": {"target": "Serine/threonine-protein kinase 24 (Homo sapiens) (UniProt Q9Y6E0)", "settings": "Compound concentration 1000.0 nM"}, "[27]": {"target": "Phosphatidylinositol 3-kinase C2 domain-containing subunit gamma (Homo sapiens) (UniProt O75747)", "settings": "Compound concentration 1000.0 nM"}, "[28]": {"system": "Phosphatidylinositol 4,5-bisphosphate 3-kinase catalytic subunit alpha isoform (Homo sapiens), P42336 [E545A]", "settings": "Compound concentration 1000.0 nM"}, "[29]": {"target": "Serine/threonine-protein kinase D2 (Homo sapiens) (UniProt Q9BZL6)", "sequence (Q9BZL6 whole entry)": "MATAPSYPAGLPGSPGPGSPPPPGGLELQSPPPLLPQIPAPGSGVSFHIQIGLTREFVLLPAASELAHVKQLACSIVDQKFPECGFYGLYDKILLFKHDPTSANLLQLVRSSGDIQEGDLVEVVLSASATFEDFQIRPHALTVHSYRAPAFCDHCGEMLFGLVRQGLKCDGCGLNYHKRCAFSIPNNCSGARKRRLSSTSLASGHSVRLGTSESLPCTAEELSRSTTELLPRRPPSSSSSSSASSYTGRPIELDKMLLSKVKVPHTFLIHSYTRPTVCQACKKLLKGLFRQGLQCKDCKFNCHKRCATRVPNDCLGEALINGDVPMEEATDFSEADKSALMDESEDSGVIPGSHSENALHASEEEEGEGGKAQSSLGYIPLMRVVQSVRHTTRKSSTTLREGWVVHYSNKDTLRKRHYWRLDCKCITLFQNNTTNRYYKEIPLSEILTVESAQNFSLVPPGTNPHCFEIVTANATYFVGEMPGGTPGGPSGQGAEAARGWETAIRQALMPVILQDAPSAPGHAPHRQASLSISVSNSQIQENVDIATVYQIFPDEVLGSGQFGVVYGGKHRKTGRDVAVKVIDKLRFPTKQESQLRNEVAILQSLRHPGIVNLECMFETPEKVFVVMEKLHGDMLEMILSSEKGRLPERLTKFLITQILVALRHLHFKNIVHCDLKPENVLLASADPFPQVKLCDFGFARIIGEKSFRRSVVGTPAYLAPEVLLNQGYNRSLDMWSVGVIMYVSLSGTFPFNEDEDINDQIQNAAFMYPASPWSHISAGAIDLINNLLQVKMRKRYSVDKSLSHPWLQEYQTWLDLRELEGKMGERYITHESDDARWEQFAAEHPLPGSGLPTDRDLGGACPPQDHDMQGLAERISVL", "settings": "Compound concentration 1000.0 nM"}, "[30]": {"target": "Protein-tyrosine kinase 2-beta (Homo sapiens) (UniProt Q14289)", "settings": "Compound concentration 1000.0 nM"}, "[31]": {"target": "Ribosomal protein S6 kinase alpha-6 (Homo sapiens) (UniProt Q9UK32)", "settings": "Compound concentration 1000.0 nM"}, "[32]": {"target": "Ribosomal protein S6 kinase beta-1 (Homo sapiens) (UniProt P23443)", "settings": "Compound concentration 1000.0 nM"}, "[33]": {"target": "NUAK family SNF1-like kinase 2 (Homo sapiens) (UniProt Q9H093)", "settings": "Compound concentration 1000.0 nM"}, "[34]": {"target": "Serine/threonine-protein kinase 35 (Homo sapiens) (UniProt Q8TDR2)", "settings": "Compound concentration 1000.0 nM"}, "[35]": {"target": "Dual specificity testis-specific protein kinase 1 (Homo sapiens) (UniProt Q15569)", "sequence (Q15569 whole entry, looked up)": "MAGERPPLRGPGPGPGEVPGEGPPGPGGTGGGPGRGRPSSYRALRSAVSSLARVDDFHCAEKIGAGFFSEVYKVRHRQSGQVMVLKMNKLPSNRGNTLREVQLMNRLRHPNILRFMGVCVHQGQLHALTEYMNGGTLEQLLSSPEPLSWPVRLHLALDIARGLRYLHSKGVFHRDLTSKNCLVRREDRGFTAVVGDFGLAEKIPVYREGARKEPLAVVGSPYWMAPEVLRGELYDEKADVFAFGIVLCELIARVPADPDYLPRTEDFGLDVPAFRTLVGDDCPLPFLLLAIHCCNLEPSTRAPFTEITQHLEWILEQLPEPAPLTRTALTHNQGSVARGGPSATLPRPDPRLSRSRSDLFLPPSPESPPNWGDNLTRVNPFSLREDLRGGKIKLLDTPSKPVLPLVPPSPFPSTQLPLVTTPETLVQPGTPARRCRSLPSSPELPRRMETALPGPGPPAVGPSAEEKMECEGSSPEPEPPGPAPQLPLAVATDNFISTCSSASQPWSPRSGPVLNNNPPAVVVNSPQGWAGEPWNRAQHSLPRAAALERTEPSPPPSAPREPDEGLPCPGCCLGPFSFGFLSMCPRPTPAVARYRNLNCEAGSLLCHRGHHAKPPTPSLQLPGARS", "settings": "Compound concentration 1000.0 nM"}, "[36]": {"target": "Serine/threonine-protein kinase ULK2 (Homo sapiens) (UniProt Q8IYT8)", "sequence (Q8IYT8 whole entry)": "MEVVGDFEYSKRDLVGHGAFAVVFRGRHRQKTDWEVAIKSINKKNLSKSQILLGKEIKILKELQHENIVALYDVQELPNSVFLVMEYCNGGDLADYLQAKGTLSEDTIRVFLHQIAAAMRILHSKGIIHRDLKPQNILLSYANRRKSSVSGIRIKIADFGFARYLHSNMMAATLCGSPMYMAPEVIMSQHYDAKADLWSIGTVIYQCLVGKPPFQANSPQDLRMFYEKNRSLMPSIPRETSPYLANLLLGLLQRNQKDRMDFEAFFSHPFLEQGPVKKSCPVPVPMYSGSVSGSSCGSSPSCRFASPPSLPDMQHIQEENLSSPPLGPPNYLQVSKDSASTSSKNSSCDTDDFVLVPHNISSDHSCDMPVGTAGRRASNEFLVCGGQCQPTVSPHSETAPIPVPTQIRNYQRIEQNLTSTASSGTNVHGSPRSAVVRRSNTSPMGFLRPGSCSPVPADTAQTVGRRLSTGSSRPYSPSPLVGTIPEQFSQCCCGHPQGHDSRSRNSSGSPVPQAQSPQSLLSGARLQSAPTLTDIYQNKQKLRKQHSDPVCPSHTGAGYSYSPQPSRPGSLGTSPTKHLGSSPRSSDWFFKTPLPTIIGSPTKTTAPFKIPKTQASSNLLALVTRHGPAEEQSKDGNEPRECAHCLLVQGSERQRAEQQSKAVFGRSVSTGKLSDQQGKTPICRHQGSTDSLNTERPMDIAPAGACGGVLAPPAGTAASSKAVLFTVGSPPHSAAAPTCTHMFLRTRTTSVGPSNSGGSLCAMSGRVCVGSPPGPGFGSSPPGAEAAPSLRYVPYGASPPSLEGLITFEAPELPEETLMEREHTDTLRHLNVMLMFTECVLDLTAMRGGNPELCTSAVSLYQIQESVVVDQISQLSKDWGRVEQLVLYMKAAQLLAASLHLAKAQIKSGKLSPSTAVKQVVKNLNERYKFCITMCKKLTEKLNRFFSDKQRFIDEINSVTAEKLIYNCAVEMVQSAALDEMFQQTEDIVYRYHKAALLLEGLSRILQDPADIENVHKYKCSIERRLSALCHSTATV", "settings": "Compound concentration 1000.0 nM"}, "[37]": {"target": "Serine/threonine-protein kinase 32A (Homo sapiens) (UniProt Q8WU08)", "sequence (Q8WU08 whole entry)": "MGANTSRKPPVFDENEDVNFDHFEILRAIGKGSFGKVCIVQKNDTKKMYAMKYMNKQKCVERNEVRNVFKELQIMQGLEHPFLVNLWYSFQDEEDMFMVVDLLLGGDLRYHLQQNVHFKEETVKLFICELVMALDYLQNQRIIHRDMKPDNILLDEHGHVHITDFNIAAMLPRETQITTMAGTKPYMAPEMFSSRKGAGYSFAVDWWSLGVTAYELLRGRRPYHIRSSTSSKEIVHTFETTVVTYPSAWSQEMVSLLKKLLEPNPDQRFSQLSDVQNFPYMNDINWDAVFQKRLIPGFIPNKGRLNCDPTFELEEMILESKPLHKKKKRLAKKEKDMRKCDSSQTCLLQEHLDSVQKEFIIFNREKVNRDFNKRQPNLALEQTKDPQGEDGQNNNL", "settings": "Compound concentration 1000.0 nM"}, "[38]": {"target": "5-hydroxytryptamine receptor 1E (Homo sapiens) (UniProt P28566)", "sequence (P28566 whole entry)": "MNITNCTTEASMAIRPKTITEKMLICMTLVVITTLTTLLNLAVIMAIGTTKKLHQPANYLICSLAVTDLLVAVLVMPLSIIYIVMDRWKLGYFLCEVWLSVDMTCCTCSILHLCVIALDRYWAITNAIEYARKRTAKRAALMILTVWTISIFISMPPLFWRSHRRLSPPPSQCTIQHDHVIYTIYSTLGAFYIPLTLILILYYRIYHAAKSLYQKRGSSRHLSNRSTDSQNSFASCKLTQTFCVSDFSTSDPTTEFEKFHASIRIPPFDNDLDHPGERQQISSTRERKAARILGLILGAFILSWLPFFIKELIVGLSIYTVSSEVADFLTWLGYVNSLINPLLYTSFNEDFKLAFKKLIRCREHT", "settings": "Compound concentration 10.0 uM"}, "[39]": {"target": "5-hydroxytryptamine receptor 7 (Homo sapiens) (UniProt P34969)", "settings": "Compound concentration 10.0 uM"}, "[40]": {"target": "D(1A) dopamine receptor (Homo sapiens) (UniProt P21728)", "settings": "Compound concentration 10.0 uM"}, "[41]": {"target": "Histamine H3 receptor (Homo sapiens) (UniProt Q9Y5N1)", "settings": "Compound concentration 10.0 uM"}}}
{"smiles": "CCOCCn1cc(C(=O)Nc2ccc(-n3nc(-c4cccnc4)cc3C(F)(F)F)cn2)ccc1=O", "note": "[BI 1935]", "values": [{"measurement": "residual activity", "setting": "[1]", "result": 100, "unit": "%"}, {"measurement": "residual activity", "setting": "[2]", "result": 41, "unit": "%"}, {"measurement": "residual activity", "setting": "[3]", "result": 101, "unit": "%"}, {"measurement": "residual activity", "setting": "[4]", "result": 94, "unit": "%"}, {"measurement": "residual activity", "setting": "[5]", "result": 98, "unit": "%"}, {"measurement": "residual activity", "setting": "[6]", "result": 103, "unit": "%"}, {"measurement": "residual activity", "setting": "[7]", "result": 106, "unit": "%"}, {"measurement": "residual activity", "setting": "[8]", "result": 97, "unit": "%"}, {"measurement": "residual activity", "setting": "[9]", "result": 74, "unit": "%"}, {"measurement": "residual activity", "setting": "[10]", "result": 90, "unit": "%"}, {"measurement": "residual activity", "setting": "[11]", "result": 100, "unit": "%"}, {"measurement": "residual activity", "setting": "[12]", "result": 100, "unit": "%"}, {"measurement": "residual activity", "setting": "[13]", "result": 88, "unit": "%"}, {"measurement": "residual activity", "setting": "[14]", "result": 95, "unit": "%"}, {"measurement": "residual activity", "setting": "[15]", "result": 100, "unit": "%"}, {"measurement": "residual activity", "setting": "[16]", "result": 88, "unit": "%"}, {"measurement": "residual activity", "setting": "[17]", "result": 100, "unit": "%"}, {"measurement": "residual activity", "setting": "[18]", "result": 100, "unit": "%"}, {"measurement": "residual activity", "setting": "[19]", "result": 100, "unit": "%"}, {"measurement": "residual activity", "setting": "[20]", "result": 89, "unit": "%"}, {"measurement": "residual activity", "setting": "[21]", "result": 99, "unit": "%"}, {"measurement": "residual activity", "setting": "[22]", "result": 98, "unit": "%"}, {"measurement": "residual activity", "setting": "[23]", "result": 100, "unit": "%"}, {"measurement": "residual activity", "setting": "[24]", "result": 76, "unit": "%"}, {"measurement": "residual activity", "setting": "[25]", "result": 100, "unit": "%"}, {"measurement": "residual activity", "setting": "[26]", "result": 100, "unit": "%"}, {"measurement": "residual activity", "setting": "[27]", "result": 85, "unit": "%"}, {"measurement": "residual activity", "setting": "[28]", "result": 100, "unit": "%"}, {"measurement": "residual activity", "setting": "[29]", "result": 100, "unit": "%"}, {"measurement": "residual activity", "setting": "[30]", "result": 100, "unit": "%"}, {"measurement": "residual activity", "setting": "[31]", "result": 100, "unit": "%"}, {"measurement": "residual activity", "setting": "[32]", "result": 97, "unit": "%"}, {"measurement": "residual activity", "setting": "[33]", "result": 73, "unit": "%"}, {"measurement": "residual activity", "setting": "[34]", "result": 94, "unit": "%"}, {"measurement": "residual activity", "setting": "[35]", "result": 85, "unit": "%"}, {"measurement": "residual activity", "setting": "[36]", "result": 74, "unit": "%"}, {"measurement": "residual activity", "setting": "[37]", "result": 96, "unit": "%"}, {"measurement": "inhibition", "setting": "[38]", "result": -4.17, "unit": "%"}, {"measurement": "inhibition", "setting": "[39]", "result": -4.21, "unit": "%"}, {"measurement": "inhibition", "setting": "[40]", "result": -7.31, "unit": "%"}, {"measurement": "inhibition", "setting": "[41]", "result": 25.3, "unit": "%"}]}
